The values that follow come from patent US11529338B2, “Compositions and methods for treating cancer” (Cedars-Sinai Medical Center, priority 2017, dated 2022).

This experiment concerns the target T1, OC2-HOX (Homo sapiens, UniProt O95948).
T1 sequence (O95948 426-485 limits assumed): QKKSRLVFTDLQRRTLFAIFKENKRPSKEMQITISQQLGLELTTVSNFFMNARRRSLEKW
Nature of the experiment: Binding to OC2-HOX measured by surface plasmon resonance. As to conditions: based on 2:2 Langmuir model simulation of the bimolecular interactions, read-out: binding affinity KD. From the text:
FIG. 12A-FIG. 12C depicts in accordance with various embodiments of the invention, CSRM617 derivatives. FIG. 12A depicts chemical structures of CSRM617 derivatives CSRM123 and CSRM843. FIG. 12B depicts dose-dependent binding of CSRM123 and CSRM843 to OC2-HOX, measured by surface plasmon resonance, is shown. […] FIG. 12C depicts IC50 values for compounds CSRM617, CSRM123 and CSRM843 in 22Rv1 and DU145 cell lines.

The Kd is a measure of binding affinity in units of concentration.

Structures are written as SMILES.

Take `NC(=O)C1CCCCN1C(=O)NCCc1ccc(O)c(O)c1O` (centres unmarked) [CSRM123]: the Kd is 1150 nM.

`O=C(CNC(=O)Cc1ccc(O)c(O)c1O)NO` [CSRM843]: the Kd is 118 nM.
